Data on 10 compounds can be found in US12667572B2, “Tricyclic compounds useful in the treatment of cancer, autoimmune and inflammatory disorders” (SCHRÖDINGER, INC., priority 2021, dated 2026).

Broadly, the IC50 is the concentration that gives 50% inhibition. High values mean lower potency, low ones higher potency.

A value given as a limit tells only on which side of the number the result lay.

The target in this assay is T1, full-length MALT1 protein His-MALT1(1-824) (Homo sapiens, UniProt Q9UDY8).
T1 construct: full-length MALT1 protein His-MALT1(1-824); His (N); made in house; host or cells: baculovirus-infected insect cells
T1 sequence (Q9UDY8 1-824): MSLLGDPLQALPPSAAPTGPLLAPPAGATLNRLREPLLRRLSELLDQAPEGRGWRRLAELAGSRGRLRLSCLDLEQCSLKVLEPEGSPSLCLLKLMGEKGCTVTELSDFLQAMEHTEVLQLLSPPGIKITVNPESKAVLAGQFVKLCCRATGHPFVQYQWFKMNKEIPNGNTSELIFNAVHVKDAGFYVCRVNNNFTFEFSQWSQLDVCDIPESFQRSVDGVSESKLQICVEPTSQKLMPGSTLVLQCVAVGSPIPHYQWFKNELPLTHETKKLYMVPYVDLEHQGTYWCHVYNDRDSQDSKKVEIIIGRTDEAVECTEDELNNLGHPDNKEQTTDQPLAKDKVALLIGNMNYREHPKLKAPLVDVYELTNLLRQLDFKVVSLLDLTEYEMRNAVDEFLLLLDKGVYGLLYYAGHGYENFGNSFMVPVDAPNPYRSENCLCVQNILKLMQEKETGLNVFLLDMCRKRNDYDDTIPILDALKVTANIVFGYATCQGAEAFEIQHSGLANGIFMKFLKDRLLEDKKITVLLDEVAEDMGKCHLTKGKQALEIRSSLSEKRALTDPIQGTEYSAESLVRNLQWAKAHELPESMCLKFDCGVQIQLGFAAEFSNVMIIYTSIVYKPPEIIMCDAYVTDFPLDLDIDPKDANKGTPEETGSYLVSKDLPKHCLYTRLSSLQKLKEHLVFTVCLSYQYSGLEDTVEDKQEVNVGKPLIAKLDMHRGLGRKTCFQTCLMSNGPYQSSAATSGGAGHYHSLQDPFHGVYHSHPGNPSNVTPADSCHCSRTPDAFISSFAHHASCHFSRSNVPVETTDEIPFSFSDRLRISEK
As to the kind of experiment: MALT1 protease assay, Assay 2 (1 nM MALT1, Ac-LRSR-AMC substrate). Particulars: 1 nM MALT1, 50 μM Ac-LRSR-AMC, 2 h pre-incubation, 8 hr incubation at RT. It counts as biochemical. The method in brief:
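Full-length His-MALT1(1-824) from baculovirus-infected insect cells, pre-incubated with compound 2 h at RT (0.1% DMSO). Then 50 μM Ac-LRSR-AMC added. Buffer was Tris pH 7.5 with 600 mM sodium citrate, DTT, EDTA and BSA. Fluorescence (ex 355/em 460 nm) was read after 8 h at RT and normalized to high/low controls. IC50 from non-linear regression.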
In the case of `CC1(C)CC(C(=O)Nc2cnc(-n3ncnn3)c(Cl)c2)c2cnc3cc(Cl)nn3c21` (stereo not shown) [Example 120, 2-chloro-N-(5-chloro-6-(2H-tetrazol-2-yl)pyridin-3-yl)-8,8-dimethyl-7,8-dihydro-6H-cyclopenta[e]pyrazolo[1,5-a]pyrimidine-6-carboxamide], the IC50 was 10 to 100 nM.
`O=C(Nc1cnc(C(O)C(F)F)c(Cl)c1)C1CC2(CCC2)c2c1cnc1cc(F)nn21` (single isomer, unassigned) [Example 133, N-(5-chloro-6-(2,2-difluoro-1-hydroxyethyl)pyridin-3-yl)-2′-fluoro-6′,7′-dihydrospiro[cyclobutane-1,8′-cyclopenta[e]pyrazolo[1,5-a]pyrimidine]-6′-carboxamide] gave an IC50 not below 1000 nM.
As for `CC1(C)C[C@@H](C(=O)Nc2cnc(OC3CC3)c(C#N)c2)c2cnc3cc(F)nn3c21` (single isomer, unassigned) [Example 80, N-(5-cyano-6-cyclopropoxypyridin-3-yl)-2-fluoro-8,8-dimethyl-7,8-dihydro-6H-cyclopenta[e]pyrazolo[1,5-a]pyrimidine-6-carboxamide], the IC50 is not below 1000 nM.
The compound `N#Cc1cc(NC(=O)[C@@H]2CC3(CCC3)c3c2cnc2cc(F)nn32)cnc1OC(F)F` (single isomer, unassigned) [Example 102, N-(5-cyano-6-(difluoromethoxy)pyridin-3-yl)-2′-fluoro-6′,7′-dihydrospiro[cyclobutane-1,8′-cyclopenta[e]pyrazolo[1,5-a]pyrimidine]-6′-carboxamide] returned an IC50 of 100 to 1000 nM.
`CC(C)(O)c1ncc(NC(=O)C2CC3(CCC3)c3c2cnc2cc(F)nn32)cc1C(F)(F)F` (single isomer, unassigned) [Example 153, 2′-fluoro-N-(6-(2-hydroxypropan-2-yl)-5-(trifluoromethyl)pyridin-3-yl)-6′,7′-dihydrospiro[cyclobutane-1,8′-cyclopenta[e]pyrazolo[1,5-a]pyrimidine]-6′-carboxamide] registered an IC50 not below 1000 nM.
In turn, `CC1(C)CC(C(=O)Nc2cnc(-n3nccn3)c(Cl)c2)c2cnc3c(F)cnn3c21` (single isomer, unassigned) [Example 100, N-(5-chloro-6-(2H-1,2,3-triazol-2-yl)pyridin-3-yl)-3-fluoro-8,8-dimethyl-7,8-dihydro-6H-cyclopenta[e]pyrazolo[1,5-a]pyrimidine-6-carboxamide] came in with an IC50 of 100 to 1000 nM.
`CC1(C)C[C@@H](C(=O)Nc2cnc(-n3nccn3)c(C(F)(F)F)c2)c2cnn3cc(Cl)nc3c21` (single isomer, unassigned) [Example 192, N-(6-(2H-1,2,3-triazol-2-yl)-5-(trifluoromethyl)pyridin-3-yl)-2-chloro-9,9-dimethyl-8,9-dihydro-7H-cyclopenta[d]imidazo[1,2-b]pyridazine-7-carboxamide]: the IC50 lay within 100 to 1000 nM.
With `CN(C(=O)c1ncc(NC(=O)[C@@H]2CC(C)(C)c3c2cnc2cc(Cl)nn32)cc1C(F)F)C1CC1` (single isomer, unassigned) [Example 72, 2-chloro-N-(6-(cyclopropyl(methyl)carbamoyl)-5-(difluoromethyl)pyridin-3-yl)-8,8-dimethyl-7,8-dihydro-6H-cyclopenta[e]pyrazolo[1,5-a]pyrimidine-6-carboxamide], the IC50 was not below 1000 nM.
In the case of `C[C@@]1(C(F)(F)F)C[C@@H](C(=O)Nc2cnc(-n3nccn3)c(Cl)c2)c2cnc3cc(F)nn3c21` (single isomer, unassigned) [Example 186], the IC50 lay in the range of 100 to 1000 nM.
With `CC1(C)CC(C(=O)Nc2ccnc(C(F)(F)F)c2)c2cnc3cc(C(F)F)nn3c21` (single isomer, unassigned) [Example 99, 2-(difluoromethyl)-8,8-dimethyl-N-(2-(trifluoromethyl)pyridin-4-yl)-7,8-dihydro-6H-cyclopenta[e]pyrazolo[1,5-a]pyrimidine-6-carboxamide] the figure was 100 to 1000 nM.
